Like-named read-outs stand apart in the source and are kept apart here.
Key:
MCC13 cells (VN-MCC) = test: qHTS cell viability (CellTiter-Glo, 72 h; primary and follow-up small molecule screen); assay type: cell-based, human
MCC26 cells (VN-MCC) = test: as above; assay type: cell-based, human
UISO cells (VN-MCC) = test: as above; assay type: cell-based, human
WAGA cells (VP-MCC) = test: as above; assay type: cell-based, human
MKL-1 cells (VP-MCC) = test: as above; assay type: cell-based, human
MKL-2 cells (VP-MCC) = test: as above; assay type: cell-based, human
HACAT cells = test: qHTS cell viability (CellTiter-Glo, 72 h; primary screen), control cell line; assay type: cell-based, human
HEK293T cells = test: as above; assay type: cell-based, human
NIH-3T3 cells = test: as above; assay type: cell-based, mouse
CRL-7250 cells = test: as above; assay type: cell-based
[1] = tested on: MCC cell lines (WAGA, MKL-1, MKL-2, MCC13, MCC26, UISO); test: qHTS cell viability, all six MCC cell lines as a group (mean AUC, MCC.avg); assay type: cell-based, human
[2] = tested on: VP-MCC cell lines (WAGA, MKL-1, MKL-2); test: qHTS cell viability, VP-MCC cell lines as a group (mean AUC, VP.MCC.avg); assay type: cell-based, human
[3] = tested on: VN-MCC cell lines (MCC13, MCC26, UISO); test: qHTS cell viability, VN-MCC cell lines as a group (mean AUC, VN.MCC.avg); assay type: cell-based, human
[4] = tested on: control cell lines (HACAT, HEK293T, CRL-7250, NIH-3T3); test: qHTS cell viability, control cell lines as a group (mean AUC, Control.avg); assay type: cell-based
[5] = tested on: six MCC cell lines and four control cell lines; test: qHTS cell viability, all 10 cell lines screened; assay type: cell-based
[6] = MIPE library, 11-point DRC, sheet S2E
[7] = MIPE library, 11-point DRC, control cell line, sheet S2E
[8] = MIPE library, mean AUC of six MCC cell lines, sheet S2E
[9] = MIPE library, Control AUC minus VP-MCC AUC (therapeutic window), sheet S2E
[10] = MIPE library, mean AUC of VP-MCC cell lines, sheet S2E
[11] = MIPE library, Control AUC minus VN-MCC AUC (therapeutic window), sheet S2E
[12] = MIPE library, mean AUC of VN-MCC cell lines, sheet S2E
[13] = MIPE library, mean AUC of control cell lines, sheet S2E
[14] = MIPE library, Control AUC minus MCC AUC (therapeutic window), sheet S2E

COc1cc(/C=C/C(=O)CC(=O)/C=C/c2ccc(O)c(OC)c2)ccc1O [Curcumin] showed an MCC13_AUC (MCC13 cells (VN-MCC); [6]) of 449.9, an MCC26_AUC (MCC26 cells (VN-MCC); [6]) of 458.412 and a UISO_AUC (UISO cells (VN-MCC); [6]) of 416.827. It also gave a WAGA_AUC (WAGA cells (VP-MCC); [6]) of 392.592, an MKL1_AUC (MKL-1 cells (VP-MCC); [6]) of 382.508 and an MKL2_AUC (MKL-2 cells (VP-MCC); [6]) of 342.595. It also gave an HACAT_AUC (HACAT cells; [7]) of 459.473, an HEK293T_AUC (HEK293T cells; [7]) of 422.758 and an NIH3T3_AUC (NIH-3T3 cells; [7]) of 423.932. The CRL7250_AUC (CRL-7250 cells; [7]) was 433.368, the MCC_Avg_AUC [1, 8] was 407.139 and the Control-VP-MCC [2, 9] was 62.3178. It also gave a VP-MCC_Avg_AUC [2, 10] of 372.565, a Control-VN-MCC [3, 11] of -6.83 and a VN-MCC_Avg_AUC [3, 12] of 441.713. The Control_Avg_AUC [4, 13] was 434.883 and the Control-MCC [5, 14] was 27.7437.

For COc1cc(/C=C2\CCC/C(=C\c3ccc(O)c(OC)c3)C2=O)ccc1O [Cyclovalone], the MCC13_AUC (MCC13 cells (VN-MCC); NPC library, qHTS dose-response AUC, MCC13) was 435.637, the “Area under the dose-response curve (AUC) MCC13 Replicate 1” value (MCC13 cells (VN-MCC); follow-up screen, MCC13, replicate 1) was 472.8 and the “Area under the dose-response curve (AUC) MCC13 Replicate 2” value (MCC13 cells (VN-MCC); follow-up screen, MCC13, replicate 2) was 478.9. The “Area under the dose-response curve (AUC) MCC13 Replicate 3” value (MCC13 cells (VN-MCC); follow-up screen, MCC13, replicate 3) was 414.2, the MCC26_AUC (MCC26 cells (VN-MCC); NPC library, qHTS dose-response AUC, MCC26) was 456.812 and the “Area under the dose-response curve (AUC) MCC26 Replicate 1” value (MCC26 cells (VN-MCC); follow-up screen, MCC26, replicate 1) was 446.8. The “Area under the dose-response curve (AUC) MCC26 Replicate 2” value (MCC26 cells (VN-MCC); follow-up screen, MCC26, replicate 2) was 450.2, the “Area under the dose-response curve (AUC) MCC26 Replicate 3” value (MCC26 cells (VN-MCC); follow-up screen, MCC26, replicate 3) was 451.9 and the UISO_AUC (UISO cells (VN-MCC); NPC library, qHTS dose-response AUC, UISO) was 420.96. The “Area under the dose-response curve (AUC) UISO Replicate 1” value (UISO cells (VN-MCC); follow-up screen, UISO, replicate 1) was 445.7, the “Area under the dose-response curve (AUC) UISO Replicate 2” value (UISO cells (VN-MCC); follow-up screen, UISO, replicate 2) was 433.0 and the “Area under the dose-response curve (AUC) UISO Replicate 3” value (UISO cells (VN-MCC); follow-up screen, UISO, replicate 3) was 430.4. The WAGA_AUC (WAGA cells (VP-MCC); NPC library, qHTS dose-response AUC, WAGA) was 394.525, the “Area under the dose-response curve (AUC) WAGA Replicate 1” value (WAGA cells (VP-MCC); follow-up screen, WAGA, replicate 1) was 469.4 and the “Area under the dose-response curve (AUC) WAGA Replicate 2” value (WAGA cells (VP-MCC); follow-up screen, WAGA, replicate 2) was 402.6. For the same molecule, the “Area under the dose-response curve (AUC) WAGA Replicate 3” value (WAGA cells (VP-MCC); follow-up screen, WAGA, replicate 3) was 413.8, the MKL1_AUC (MKL-1 cells (VP-MCC); NPC library, qHTS dose-response AUC, MKL1) was 383.35 and the “Area under the dose-response curve (AUC) MKL-1 Replicate 1” value (MKL-1 cells (VP-MCC); follow-up screen, MKL-1, replicate 1) was 414.7. The “Area under the dose-response curve (AUC) MKL-1 Replicate 2” value (MKL-1 cells (VP-MCC); follow-up screen, MKL-1, replicate 2) was 411.0, the “Area under the dose-response curve (AUC) MKL-1 Replicate 3” value (MKL-1 cells (VP-MCC); follow-up screen, MKL-1, replicate 3) was 407.6 and the MKL2_AUC (MKL-2 cells (VP-MCC); NPC library, qHTS dose-response AUC, MKL2) was 366.589. The “Area under the dose-response curve (AUC) MKL-2 Replicate 1” value (MKL-2 cells (VP-MCC); follow-up screen, MKL-2, replicate 1) was 366.1, the “Area under the dose-response curve (AUC) MKL-2 Replicate 2” value (MKL-2 cells (VP-MCC); follow-up screen, MKL-2, replicate 2) was 391.5 and the “Area under the dose-response curve (AUC) MKL-2 Replicate 3” value (MKL-2 cells (VP-MCC); follow-up screen, MKL-2, replicate 3) was 417.0. It also gave an HACAT_AUC (HACAT cells; NPC library, qHTS dose-response AUC, HACAT control) of 441.291, an HEK293T_AUC (HEK293T cells; NPC library, qHTS dose-response AUC, HEK293T control) of 422.832 and an NIH3T3_AUC (NIH-3T3 cells; NPC library, qHTS dose-response AUC, NIH3T3 control) of 447.034. For the same molecule, the CRL7250_AUC (CRL-7250 cells; NPC library, qHTS dose-response AUC, CRL7250 control) was 455.387, the MCC_Avg_AUC ([1]; NPC library, mean AUC of six MCC cell lines) was 409.645 and the VP-MCC_Avg_AUC ([2]; NPC library, mean AUC of VP-MCC cell lines) was 381.488. For the same molecule, the Control-VP-MCC ([2]; NPC library, therapeutic window: Control avg AUC minus VP-MCC avg AUC) was 60.1479, the VN-MCC_Avg_AUC ([3]; NPC library, mean AUC of VN-MCC cell lines) was 437.803 and the Control-VN-MCC ([3]; NPC library, therapeutic window: Control avg AUC minus VN-MCC avg AUC) was 3.833. It also gave a Control_Avg_AUC ([4]; NPC library, mean AUC of control cell lines) of 441.636 and a Control-MCC ([5]; NPC library, therapeutic window: Control avg AUC minus MCC avg AUC) of 31.9905.

CCNC(=O)Nc1ccc2ncc(Nc3ccc(C)cc3)nc2n1 [D-106669] was tested, and the MCC13_AUC (MCC13 cells (VN-MCC); [6]) was 484.886, the MCC26_AUC (MCC26 cells (VN-MCC); [6]) was 446.547 and the UISO_AUC (UISO cells (VN-MCC); [6]) was 355.75. For the same molecule, the WAGA_AUC (WAGA cells (VP-MCC); [6]) was 400.326, the MKL1_AUC (MKL-1 cells (VP-MCC); [6]) was 400.108 and the MKL2_AUC (MKL-2 cells (VP-MCC); [6]) was 431.031. It also gave an HACAT_AUC (HACAT cells; [7]) of 474.569, an HEK293T_AUC (HEK293T cells; [7]) of 479.506 and an NIH3T3_AUC (NIH-3T3 cells; [7]) of 467.724. It also gave a CRL7250_AUC (CRL-7250 cells; [7]) of 461.458, an MCC_Avg_AUC [1, 8] of 419.775 and a Control-VP-MCC [2, 9] of 60.3261. The VP-MCC_Avg_AUC [2, 10] was 410.488, the Control-VN-MCC [3, 11] was 41.7531 and the VN-MCC_Avg_AUC [3, 12] was 429.061. The Control_Avg_AUC [4, 13] was 470.814 and the Control-MCC [5, 14] was 51.0396.

Work on C[C@H](CN1CCOCC1)C(C(=O)N1CCCC1)(c1ccccc1)c1ccccc1.O=C(O)C(O)C(O)C(=O)O [Dextromoramide tartrate] yielded an MCC13_AUC (MCC13 cells (VN-MCC)) of 446.289, an MCC26_AUC (MCC26 cells (VN-MCC)) of 445.292 and a UISO_AUC (UISO cells (VN-MCC)) of 445.259. The WAGA_AUC (WAGA cells (VP-MCC)) was 399.942, the MKL1_AUC (MKL-1 cells (VP-MCC)) was 389.502 and the MKL2_AUC (MKL-2 cells (VP-MCC)) was 383.165. It also gave an HACAT_AUC (HACAT cells) of 472.266, an HEK293T_AUC (HEK293T cells) of 429.542 and an NIH3T3_AUC (NIH-3T3 cells) of 477.478. For the same molecule, the CRL7250_AUC (CRL-7250 cells) was 471.896, the MCC_Avg_AUC [1] was 418.242 and the Control-VP-MCC [2] was 71.9259. It also gave a VP-MCC_Avg_AUC [2] of 390.87, a Control-VN-MCC [3] of 17.1819 and a VN-MCC_Avg_AUC [3] of 445.614. For the same molecule, the Control_Avg_AUC [4] was 462.795 and the Control-MCC [5] was 44.5539.
